Data set [1] in a line: Solubility in resist solvent (PGMEA). It is filed as physicochemical. As to conditions: for Solubility: in propylene glycol monomethyl ether acetate (PGMEA).
The nature of data set [2]: Compatibility of PAG with resist (base resin). The settings on record: for Compatibility: acid generator (1.0), PGMEA (400).

Structures can show the parent of a compound that is named as a salt.

As to `CC(CC(S(=O)(=O)C(F)(F)F)S(=O)(=O)C(F)(F)F)OC(=O)C12CC3CC(CC(C3)C1)C2` (centres unmarked) [PAG1, 3-(1-adamantanecarbonyl)oxy 1,1-bis(trifluoromethanesulfonyl)butane triphenylsulfonium salt], in data set [1] (in PGMEA, statement in words), the “Solubility compared with existing PAG (PAG2) having an adamantane skeleton” value is reported as “superior”. Also, the Solubility result in data set [1] is recorded as “not less than 0.1 parts by weight of PAG dissolved in 100 parts by weight of PGMEA”. In addition, the Compatibility result in data set [2] (Resin 1 (40 parts by wt.)), in data set [2] (Resin 2 (40 parts by wt.)), in data set [2] (Resin 3 (40 parts by wt.)), in data set [2] (Resin 4 (40 parts by wt.)) and in data set [2] (Resin 5 (40 parts by wt.)) was “Good” in each case. The “Compatibility with resists compared with conventional products” value in data set [2] (summary of Table 2 and Table 3, in words) is recorded as “higher compatibility with resists as compared with conventional products”.

Regarding “(adamantan-1-ylmethyl)oxycarbonyl difluoromethanesulfonic acid triphenylsulfonium [PAG2, reference compound]”, the Solubility in data set [1] is 0.3 parts by weight of PAG dissolved in 100 parts by weight of PGMEA. The Compatibility result in data set [2] (Resin 1 (40 parts by wt.)), in data set [2] (Resin 2 (40 parts by wt.)), in data set [2] (Resin 3 (40 parts by wt.)) and in data set [2] (Resin 4 (40 parts by wt.)) was “Good” each time.

With “nonafluorobutanesulfonic acid triphenylsulfonium salt [PAG3, reference compound]”, the Compatibility entry in data set [2] (Resin 1 (40 parts by wt.)) is given as “Good”.

These data come from patent US8580486B2, “Salt having fluorine-containing carbanion structure, derivative thereof, photoacid generator, resist material using the photoacid generator, and pattern forming method” (Central Glass Company, Limited, priority 2008, dated 2013).
